ChEMBL document CHEMBL3044737, “Synthesis of biotinylated 18-glycyrrhetinic acid and its effect on tumor cells activity” (Med Chem Res, 2009)
The source made the active and inactive calls. The rule behind the calls is not given here.

Columns and labels:
[1] = Stability of the compound in water at 100 uM after 24 hr; type: physicochemical; details: buffer
[2] = Stability of the compound in RPMI-1640 medium at 100 uM after 6 days; type: physicochemical; details: 144 h
Bel-7402 [3] = experiment: Cytotoxicity against Homo sapiens (human) Bel7402 cells assessed as reduction of cell number after 12 hr by MTT assay; type: functional, cell-based; details: Bel-7402, 12 h
B16 [4] = experiment: Cytotoxicity against Mus musculus (mouse) B16 cells assessed as reduction of cell number at 50 umol/L after 12 hr by MTT assay; type: functional, cell-based
Bel-7402 [5] = experiment: Cytotoxicity against Homo sapiens (human) Bel7402 cells assessed as reduction of cell number at 50 umol/L after 12 hr by MTT assay; type: functional, cell-based
B16 [6] = experiment: Cytotoxicity against Mus musculus (mouse) B16 cells assessed as reduction of cell number up to 250 umol/L after 12 hr by MTT assay; type: functional, cell-based
Bel-7402 [7] = experiment: Cytotoxicity against Homo sapiens (human) Bel7402 cells assessed as reduction of cell number up to 250 umol/L after 12 hr by MTT assay; type: functional, cell-based
B16 [8] = experiment: Cytotoxicity against Mus musculus (mouse) B16 cells assessed as reduction of cell number after 12 hr by MTT assay; type: functional, cell-based; details: B16, 12 h

Row | Stability [1] | Stability [2] | SMILES | IC50 (Bel-7402 [3]) | Activity (B16 [4]) | Activity (Bel-7402 [5]) | Activity (B16 [6]) | Activity (Bel-7402 [7]) | IC50 (B16 [8])
1 | Stable | Stable | CC1(C)[C@@H](O)CC[C@]2(C)[C@H]3C(=O)C=C4[C@@H]5C[C@@](C)(C(=O)NCCCCCCNC(=O)CCCC[C@@H]6SC[C@@H]7NC(=O)N[C@@H]76)CC[C@]5(C)CC[C@@]4(C)[C@]3(C)CC[C@@H]12 | 175 µM | inactive | inactive | Active | Active | 170 µM
2 | Unstable | Stable | CC1(C)[C@@H](O)CC[C@]2(C)[C@H]3C(=O)C=C4[C@@H]5C[C@@](C)(C(=O)O)CC[C@]5(C)CC[C@@]4(C)[C@]3(C)CC[C@@H]12 [ENOXOLONE] |  | inactive | inactive | Active | Active | 
